{"source": "patent US7033615B2", "about": "“Methods for regulating levels of zinc, cadmium and calcium in humans and for diagnosing, or screening for the risk of developing, diseases associated with abnormal levels of cadmium, zinc and calcium in body fluids and tissues” (CancEr2 Inc., priority 1999, dated 2006)", "key": {"[1]": {"assay": "Counter-exchange of serum cadmium to erythrocytes (erythrocyte Cd/(erythrocyte Cd+serum Cd)) in men given cadmium sulfate", "format": "in vivo", "conditions": "CdSO4 1 mg daily", "protocol": "(§1) Three healthy men with low PSA levels (below 2 ng/ml) volunteered for weekly blood and urine collection while a serial treatment of zinc, zinc with cadmium, and cadmium was administered. Treatment was given daily over a nine week period, followed by three weeks of continued sampling with no treatment. The zinc was administered in the form of zinc sulfate (Zn SO4) at a daily dosage of 75 mg. The cadmium was administered in the form of cadmium sulfate (CdSO4) at a daily dosage of 1 mg. Blood and urine were collected one day prior to the beginning of treatment for purposes of establishing a baseline level of chemicals in the blood and urine. Zinc salt administration began on the second day of the study and was administered each morning. On day 15, the cadmium salt administration was begun in the evening, with continued zinc salt administration continuing in the morning. Zinc administration was discontinued on day 43; cadmium administration continued through day 57. On days 58–78 of the study, neither zinc nor cadmium was administered, but blood and urine samples continued to be collected. Blood and urine were collected one day each week (days 1, 8, 15, etc.) for a total of 12 collection days over an 11 week period. […]\n(§2) The second syringe contained no EDTA and was used to collect blood serum. […] All processed blood samples were stored in a −80° C. freezer until analyzed. […]"}, "[2]": {"tested_on": "erythrocytes", "assay": "Blockage of calcium penetration into erythrocytes (serum calcium/erythrocyte calcium) in men given cadmium sulfate", "format": "in vivo", "conditions": "three men, CdSO4 1 mg daily", "protocol": "as §1, §2"}, "[3]": {"tested_on": "rat tissue vs human tissue", "conditions": "rat tissue more sensitive than human tissue; cited from earlier work"}}, "data": [{"molecule": "O=S(=O)([O-])[O-].[Cd+2]", "note": "[cadmium, cadmium sulfate]", "values": [{"measurement": "increase of counter-exchange of serum cadmium to erythrocytes in each man", "setting": "[1]; three healthy low-PSA men, minimum increase per man", "result": "≥ 116", "unit": "%"}, {"measurement": "average cadmium counter-exchange after cadmium treatment (mean+/-S.D.)", "setting": "[1]; three men, increased from 0.311 +/-0.166", "result": "0.466+/−0.077"}, {"measurement": "increase of blockage to calcium penetration in each man", "setting": "[2]", "result": "178–330%"}, {"measurement": "average blockage of calcium penetration after cadmium treatment (mean+/-S.D.)", "setting": "[2]; increased from 114.79+/-21.135, p=0.0492", "result": "314.001+/−150.942"}, {"measurement": "sensitivity of rat tissue to cadmium relative to human tissue", "setting": "[3]", "result": 30, "unit": "times"}]}]}
